According to patent EP1781807B1, “FLUORESCENCE-BASED KINETIC DETERMINATION OF TRANSGLUTAMINASE ACTIVITY” (N-Zyme BioTec GmbH, priority 2004, dated 2006):
Where a SMILES comes first, the peptide text is derived from it. [ ]: non-standard residue; d: D form. The star is where a group is joined. X1 = O=[N+]([O-])c1ccc(NCCCCCN*)c([N+](=O)[O-])c1; 2Abz = Nc1ccccc1C(=O)O; Ahx = NCCCCCC(=O)O

Experiments:
Type in all cases: biochemical
[1] = target: T1, Faktor XIII (Homo sapiens, UniProt P00488); test: Comparison of fluorescence-labelled transglutaminase peptide substrates, kinetic measurement (Beispiel 5); settings: 900 µl thrombin-containing 50 µM peptide solution + 100 µl Humanplasma
T1 construct: 100 µl humanem Plasma (durch Thrombin aktiviert); from tissue; host or cells: human plasma
T1 sequence (P00488 39-732): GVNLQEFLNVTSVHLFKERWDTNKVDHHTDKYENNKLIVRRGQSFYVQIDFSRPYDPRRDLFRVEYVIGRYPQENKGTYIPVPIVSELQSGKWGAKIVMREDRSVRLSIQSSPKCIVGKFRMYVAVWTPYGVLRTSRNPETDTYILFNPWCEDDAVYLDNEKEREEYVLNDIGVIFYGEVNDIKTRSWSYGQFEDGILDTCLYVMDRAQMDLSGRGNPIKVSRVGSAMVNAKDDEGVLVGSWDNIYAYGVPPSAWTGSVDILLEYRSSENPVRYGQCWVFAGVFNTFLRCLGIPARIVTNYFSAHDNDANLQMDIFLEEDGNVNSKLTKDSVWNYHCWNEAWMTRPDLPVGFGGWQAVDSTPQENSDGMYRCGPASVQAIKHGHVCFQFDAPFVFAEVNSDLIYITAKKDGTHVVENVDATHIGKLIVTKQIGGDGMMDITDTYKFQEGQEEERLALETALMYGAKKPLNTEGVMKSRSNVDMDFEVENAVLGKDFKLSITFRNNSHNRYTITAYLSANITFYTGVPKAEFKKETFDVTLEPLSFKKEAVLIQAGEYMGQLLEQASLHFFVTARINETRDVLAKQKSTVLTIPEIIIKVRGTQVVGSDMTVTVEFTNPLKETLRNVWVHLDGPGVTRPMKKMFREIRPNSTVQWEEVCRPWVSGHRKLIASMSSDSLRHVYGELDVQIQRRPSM
Procedure: Vergleich von Transglutaminasepeptidsubstraten
Für den Vergleich verschiedener mit fluoreszierenden Gruppen markierter Transglutaminasepeptidsubstrate wurden kinetische Messungen unter identischen Bedingungen durchgeführt. Dazu wurden zu 900 µl einer thrombinhaltigen 50 µM Lösung des Peptids 100 µl Humanplasma zugesetzt. Diese Bedingungen entsprechen denen, die bei heutzutage üblichen Faktor XIII - Messungen (wie bei dem Marktführer: Berichrom) zum Einsatz kommen. […] Auch die Verwendung von Abz als Fluorophor (Abz-Ahx-Glu(CAD-DNP)-Gln-Ile-Val, (Parameswaran et al.,
Um die Substrateigenschaften gegenüber den Substraten des Standes der Technik zu verbessern und somit klinisch relevante Messungen zu ermöglichen, wurde ausgehend von Verbindung 1 durch routinemäßiges Experimentieren das Peptidrückgrat so verändert, dass ein Substrat entstand, das durch FXIII schneller umgesetzt werden sollte (DNS-Ahx-Glu(CAD-DNP)-Glu-Gln-Val-Ser-Pro-Leu-Thr-Leu-Leu-Lys, 2).
Gegenüber dem Peptid, das in der Literatur (Kärpäti et al.) beschrieben wird, ist die Verbindung 2 um eine Aminosäure am N-Terminus verkürzt. Dahinter stand die Absicht, die im Stand der Technik bekannte und oben beschriebene fluorogene Teilstruktur zu erhalten. Es ist aber bekannt, dass gerade die Aminsäuren, die der Bindungsstelle von Enzymen direkt benachbart sind, besonders großen Einfluss auf die Substrateigenschaften von Peptiden, bzw. Proteinen haben. Deshalb wurde in einer weiteren Modifikation von Verbindung 1 die Verbindung 3 hergestellt. (DNS-Ahx-Asn-Glu(CAD-DNP)-Glu-Gln-Val-Ser-Pro-Leu-Thr-Leu-Leu-Lys, 3).
Beispielhaft wird dies im Vergleich in Fig. 6 anhand der Reaktion von 100 µl humanem Plasma (durch Thrombin aktiviert) und einer 50 µM Lösung des Peptides Abz-Asn-Glu(CAD-DNP)-Glu-Gln-Val-Ser-Pro-Leu-Thr-Leu-Leu-Lys (Verbindung 2)) gezeigt. Dem Vergleich der Strukturen und der Fluoreszenzdaten ist zu entnehmen, dass diese Wirkung auch für andere Transglutaminasen und andere Peptide Gültigkeit hat.

[2] = target: T2, gereinigte rekombinante humane Transglutaminase 2 (Homo sapiens, UniProt P21980); test: Selectivity of measurement of different transglutaminases, 2. Ansatz (Beispiel 4); settings: substrate 50 µM, rhHis6TG2 0,25 µM, 6 % DMSO, Exc. 310 nm, Em. 427 nm, 20 min
T2 construct: His6
T2 sequence (P21980 1-687): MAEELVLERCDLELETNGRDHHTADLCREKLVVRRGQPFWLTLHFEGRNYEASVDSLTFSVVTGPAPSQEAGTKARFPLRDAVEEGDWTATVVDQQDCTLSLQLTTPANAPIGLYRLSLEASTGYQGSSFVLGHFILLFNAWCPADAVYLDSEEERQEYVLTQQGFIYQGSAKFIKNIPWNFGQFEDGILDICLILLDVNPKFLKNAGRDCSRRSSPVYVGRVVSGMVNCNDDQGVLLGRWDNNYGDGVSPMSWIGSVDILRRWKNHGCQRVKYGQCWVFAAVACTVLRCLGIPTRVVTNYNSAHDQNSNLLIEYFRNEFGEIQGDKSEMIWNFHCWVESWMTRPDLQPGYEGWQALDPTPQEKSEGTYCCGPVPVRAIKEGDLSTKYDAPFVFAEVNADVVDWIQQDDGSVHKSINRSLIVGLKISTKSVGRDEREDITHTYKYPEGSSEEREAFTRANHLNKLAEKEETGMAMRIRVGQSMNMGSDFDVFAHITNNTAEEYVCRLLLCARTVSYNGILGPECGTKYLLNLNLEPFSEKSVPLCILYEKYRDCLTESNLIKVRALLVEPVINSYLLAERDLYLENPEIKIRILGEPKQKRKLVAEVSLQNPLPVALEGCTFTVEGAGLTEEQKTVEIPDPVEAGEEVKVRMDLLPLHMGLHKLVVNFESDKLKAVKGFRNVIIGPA
Description: (§1) Selektivität der Messungen verschiedener Transglutaminasen
2. Ansatz: Abz-Asn-Glu(CAD-DNP)-Glu-Gln-Val-Ser-Pro-Leu-Thr-Leu-Leu-Lys (2), Transglutaminase: gereinigte rekombinante humane Transglutaminase 2

[3] = target: T3, FXIII (Homo sapiens, UniProt P00488); test: Kinetic measurement of FXIII in plasma (Beispiel 1); settings: in Gegenwart von 5 mM Glycinethylester, otherwise identical conditions; 100 µl Citratplasma, 20 NIH Units Thrombin, 37°C, Exc. 310 nm, Em. 427 nm
T3 construct: Kinetische Messung von FXIII in Plasmen; from tissue; host or cells: plasma
T3 sequence (P00488 1-732): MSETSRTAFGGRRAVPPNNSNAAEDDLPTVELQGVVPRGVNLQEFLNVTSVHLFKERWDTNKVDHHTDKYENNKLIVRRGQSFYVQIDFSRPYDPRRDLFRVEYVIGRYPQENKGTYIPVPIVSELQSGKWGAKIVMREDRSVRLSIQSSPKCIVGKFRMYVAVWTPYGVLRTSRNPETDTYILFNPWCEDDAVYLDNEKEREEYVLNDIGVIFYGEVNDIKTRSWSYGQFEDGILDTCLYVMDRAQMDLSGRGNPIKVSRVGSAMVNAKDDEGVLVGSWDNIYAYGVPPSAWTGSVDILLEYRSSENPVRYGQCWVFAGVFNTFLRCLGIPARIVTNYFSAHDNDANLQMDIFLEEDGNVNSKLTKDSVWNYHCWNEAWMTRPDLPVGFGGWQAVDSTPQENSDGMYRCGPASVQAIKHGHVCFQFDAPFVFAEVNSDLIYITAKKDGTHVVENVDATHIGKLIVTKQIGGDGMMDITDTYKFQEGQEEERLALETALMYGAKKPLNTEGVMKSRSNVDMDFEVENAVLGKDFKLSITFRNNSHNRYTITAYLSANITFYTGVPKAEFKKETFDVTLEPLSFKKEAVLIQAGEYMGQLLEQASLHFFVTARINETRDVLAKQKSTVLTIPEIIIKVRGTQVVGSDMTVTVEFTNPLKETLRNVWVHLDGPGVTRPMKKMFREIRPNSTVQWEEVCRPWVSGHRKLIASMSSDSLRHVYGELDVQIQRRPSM
Description: Kinetische Messung von FXIII in Plasmen
Substratpeptid: Abz-Asn-Glu(CAD-DNP)-Glu-Gln-Val-Ser-Pro-Leu-Thr-Leu-Leu-Lys (2)
Die Substratsequenz Asn-Gln-Glu-Gln-Val-Ser-Pro-Leu-Thr-Leu-Leu-Lys ist einem natürlichen Substrat des FXIII entnommen und wurde bereits zur kinetischen Messungen von FXIII in der Literatur beschrieben (Kärpäti L. et al., Clin Chem., 46:12, 2000, 1946-55). Durch die erfindungsgemäße Modifikation dieses Peptides kann eine kinetische Messung in Plasmen durchgeführt werden (unterer Graph in Fig. 3). Die Messung wurde in diesem speziellen Fall wie folgt durchgeführt.

[4] = target: T4, Faktor XIII (Homo sapiens, UniProt P00488); test: Selectivity of measurement of different transglutaminases, 1. Ansatz (Beispiel 4); settings: substrate 50 µM, 100 µl Citratplasma, 6 % DMSO, Exc. 310 nm, Em. 427 nm, 20 min
T4 construct: 100 µl Citratplasma; from tissue; host or cells: citrate plasma
T4 sequence (P00488 1-732): T3 sequence (P00488 1-732)
Description: as §1
1. Ansatz: Substratpeptid: Abz-Ala-Pro-Glu(CAD-DNP)-Gln-Glu-Ala (3), Transglutaminase: Faktor XIII

| Compound | Steigerung der Fluoreszenz [1] | other results |
| --- | --- | --- |
| 2-Aminobenzoyl-L-asparaainyl-N^δ-[N-(2,4-dinitrophenyl)1-5-aminopentyl]-L-glutaminyl-L-glutamyl-L-glutaminyl-L-valinyl-L-serinyl-L-prolinyl-L-leucinyl-L-threoninyl-L-leucinyl-L-leucin-L-lysin [Verbindung 2] | wesentliche Verbesserung der Fluoreszenzsteigerung | Anstieg der Fluoreszenz [2]: Ergebnis: kein Anstieg der Fluoreszenz; Signal (Fluoreszenzänderung) [3]: Signal zusätzlich verstärkt |
| CC[C@H](C)[C@H](NC(=O)[C@H](CCC(N)=O)NC(=O)[C@H](CCC(=O)NCCCCCNc1ccc([N+](=O)[O-])cc1[N+](=O)[O-])NC(=O)CCCCCNC(=O)c1ccccc1N)C(=O)N[C@H](C(=O)O)C(C)C [Abz-Ahx-Glu(CAD-DNP)-Gln-Ile-Val] (H-[2Abz][Ahx]E(X1)QIV-OH) | keine messbare Steigerung der Fluoreszenz |  |
| C[C@H](NC(=O)[C@H](CCC(=O)O)NC(=O)[C@H](CCC(N)=O)NC(=O)[C@H](CCC(=O)NCCCCCNc1ccc([N+](=O)[O-])cc1[N+](=O)[O-])NC(=O)[C@@H]1CCCN1C(=O)[C@H](C)NC(=O)c1ccccc1N)C(=O)O [Verbindung 3] (H-[2Abz]APE(X1)QEA-OH) |  | Anstieg der Fluoreszenz [4]: Ergebnis: kein Anstieg der Fluoreszenz |
| DNS-Ahx-Asn-Glu(CAD-DNP)-Glu-Gln-Val-Ser-Pro-Leu-Thr-Leu-Leu-Lys | nicht zu dem gewünschten Ergebnis |  |
| DNS-Ahx-Gln(CAD-DNP)-Glu-lle-Val-OH [Verbindung 1] | keine messbare Steigerung der Fluoreszenz |  |
| DNS-Ahx-Glu(CAD-DNP)-Glu-Gln-Val-Ser-Pro-Leu-Thr-Leu-Leu-Lys | nicht zu einer Verbesserung |  |
